Assay results: patent US8008292B2, “Condensed benzamide compounds and inhibitors of vanilloid receptor subtype 1 (VR1) activity” (Japan Tobacco Inc., priority 2004, dated 2011)
pIC50: −log10 of the molar value.

Target: T1, human VR1 (Homo sapiens, UniProt Q8NER1)
T1 construct: expressed in transfected cells
Assay: Inhibition of Ca2+ entry in cells caused by proton, in rat glioma (C6BU1) cells stably expressing human VR1 (Fura 2 fluorescence)
Format: cell-based
Details: inhibition of proton-induced Ca2+ entry
Summary of the method: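 Fura 2-loaded C6BU1 cells in 20 mM MES buffer pH 6.8 with added Ca2+ were preincubated 10 min with compound (final 1 μM to 0.1 nM, 1% DMSO). Proton stimulation brought pH to 5.5. Fluorescence rise was measured, and IC50 was derived from % inhibition versus DMSO control.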

T1 sequence (Q8NER1 whole entry): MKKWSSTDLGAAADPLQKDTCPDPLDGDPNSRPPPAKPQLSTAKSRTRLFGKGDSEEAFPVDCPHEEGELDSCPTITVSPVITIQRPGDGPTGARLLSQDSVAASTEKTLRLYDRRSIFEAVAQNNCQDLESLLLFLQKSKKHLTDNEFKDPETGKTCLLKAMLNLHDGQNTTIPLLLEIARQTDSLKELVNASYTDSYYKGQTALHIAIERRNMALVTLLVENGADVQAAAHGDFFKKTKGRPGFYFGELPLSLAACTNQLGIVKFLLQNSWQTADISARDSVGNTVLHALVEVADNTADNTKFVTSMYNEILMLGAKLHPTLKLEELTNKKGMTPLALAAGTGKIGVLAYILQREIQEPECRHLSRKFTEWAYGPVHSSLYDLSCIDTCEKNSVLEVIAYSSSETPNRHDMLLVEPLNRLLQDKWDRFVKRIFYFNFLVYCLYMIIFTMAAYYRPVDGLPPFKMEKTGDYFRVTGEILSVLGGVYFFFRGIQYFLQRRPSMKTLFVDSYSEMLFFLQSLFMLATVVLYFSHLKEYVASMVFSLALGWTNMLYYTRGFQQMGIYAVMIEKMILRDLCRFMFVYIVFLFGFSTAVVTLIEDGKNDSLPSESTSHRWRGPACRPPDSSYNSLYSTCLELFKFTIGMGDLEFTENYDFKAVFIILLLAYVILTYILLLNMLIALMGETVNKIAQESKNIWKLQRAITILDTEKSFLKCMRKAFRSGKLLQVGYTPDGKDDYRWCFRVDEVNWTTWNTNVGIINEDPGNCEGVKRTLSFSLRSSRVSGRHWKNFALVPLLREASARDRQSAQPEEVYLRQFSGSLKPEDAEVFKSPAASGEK

pIC50	Compound
> 7.00	O=C(Nc1ccc(Br)c(Cl)c1)c1cccc2c1OCCN2c1ncc(CO)cc1Cl [Example 2-17]
> 7.00	O=C(Nc1ccc(OCC(F)(F)F)cc1)c1cccc2c1OCCN2c1ncc(CO)cc1Cl [Example 2-30]
> 7.00	O=C(Nc1ccc(SC(F)(F)F)cc1)c1cccc2c1OCCN2c1ncc(CO)cc1Cl [Example 2-32]
> 7.00	CC(C)Oc1ccc(NC(=O)c2cccc3c2OCCN3c2ncc(CO)cc2Cl)cc1F [Example 2-34]
> 7.00	CC(C)(C)c1ccc(NC(=O)c2cccc3c2OCCN3c2ncc(CO)cc2Cl)cc1 [Example 2-36]
> 7.00	O=C(Nc1ccc(C(O)(C(F)(F)F)C(F)(F)F)cc1)c1cccc2c1OCCN2c1ncc(CO)cc1Cl [Example 2-37]
> 7.00	CC(C)COc1ccc(NC(=O)c2cccc3c2OCCN3c2ncc(CO)cc2Cl)cc1 [Example 2-39]
> 7.00	O=C(Nc1ccc(Cl)c(Cl)c1)c1cccc2c1OCCN2c1ncc(CO)cc1Cl [Example 2-40]
> 7.00	O=C(Nc1ccc(Br)c(F)c1)c1cccc2c1OCCN2c1ncc(CO)cc1Cl [Example 2-41]
> 7.00	O=C(Nc1ccc(Br)cc1)c1cccc2c1OCCN2c1ncc(CO)cc1Cl [Example 2-42]
> 7.00	O=C(Nc1ccc(OC(F)F)cc1)c1cccc2c1OCCN2c1ncc(CO)cc1Cl [Example 2-44]
> 7.00	O=C(Nc1ccc(Cl)cc1)c1cccc2c1OCCN2c1ncc(CO)cc1Cl [Example 2-45]
> 7.00	CC(C)c1ccc(NC(=O)c2cccc3c2OCCN3c2ncc(CO)cc2Cl)cc1 [Example 2-46]
> 7.00	O=C(Nc1cccc(OC(F)(F)F)c1)c1cccc2c1OCCN2c1ncc(CO)cc1Cl [Example 2-47]
> 7.00	CC(O)c1cnc(N2CCOc3c(C(=O)Nc4ccc(OC(F)(F)F)cc4)cccc32)c(Cl)c1 (centres unmarked) [Example 2-48]

The remaining lines, values behind:

Compound	pIC50
CC(C)Oc1ccc(NC(=O)c2cccc3c2OCCN3c2ncc(CO)cc2Cl)cc1C(F)(F)F [Example 2-19]	> 7.00
O=C(Nc1cnc(Cl)c(Cl)c1)c1cccc2c1OCCN2c1ncc(CO)cc1Cl [Example 2-20]	> 7.00
O=C(Nc1cc(Cl)c(Cl)c(Cl)c1)c1cccc2c1OCCN2c1ncc(CO)cc1Cl [Example 2-21]	> 7.00
O=C(Nc1nc2ccc(F)cc2s1)c1cccc2c1OCCN2c1ncc(CO)cc1Cl [Example 2-22]	> 7.00
O=C(Nc1ccc(Br)c(C(F)(F)F)c1)c1cccc2c1OCCN2c1ncc(CO)cc1Cl [Example 2-23]	> 7.00
O=C(Nc1cc(F)c(F)c(F)c1)c1cccc2c1OCCN2c1ncc(CO)cc1Cl [Example 2-25]	> 7.00
O=C(Nc1ccc(F)c([N+](=O)[O-])c1)c1cccc2c1OCCN2c1ncc(CO)cc1Cl [Example 2-26]	6.00 to 7.00
CC(C)(C)c1ccc(NC(=O)c2cccc3c2OCCN3c2ccc(CO)cn2)cc1 [Example 2-28]	> 7.00
O=C(Nc1cc(C(F)(F)F)cc(C(F)(F)F)c1)c1cccc2c1OCCN2c1ncc(CO)cc1Cl [Example 2-29]	> 7.00
O=C(Nc1ccc(OCC(F)(F)F)c(Cl)c1)c1cccc2c1OCCN2c1ncc(CO)cc1Cl [Example 2-31]	> 7.00
CC(C)(C)C1CCC(NC(=O)c2cccc3c2OCCN3c2ncc(CO)cc2Cl)CC1 (centres unmarked) [Example 2-33]	> 7.00
O=C(Nc1ccc(N2CCCCC2)c(F)c1)c1cccc2c1OCCN2c1ncc(CO)cc1Cl [Example 2-35]	> 7.00
O=C(Nc1ccc2c(c1)OC(F)(F)C(F)(F)O2)c1cccc2c1OCCN2c1ncc(CO)cc1Cl [Example 2-38]	> 7.00
O=C(Nc1cc(Cl)cc(Cl)c1)c1cccc2c1OCCN2c1ncc(CO)cc1Cl [Example 2-43]	> 7.00
O=C(Nc1ccc(OC(F)(F)F)cc1)c1cccc2c1OC[C@@H](CO)N2c1ncccc1Cl [Example 4-01, (R)-4-(3-chloropyridin-2-yl)-3-hydroxylmethyl-N-(4-trifluoromethoxyphenyl)-3,4-dihydro-2H-benzo[1,4]oxazine-8-carboxamide]	6.00 to 7.00
O=C(Nc1ccc(OC(F)(F)F)cc1)c1cccc2c1OC[C@H](CO)N2c1ncccc1Cl [Example 4-03, (S)-4-(3-chloropyridin-2-yl)-3-hydroxylmethyl-N-(4-trifluoromethoxyphenyl)-3,4-dihydro-2H-benzo[1,4]oxazine-8-carboxamide]	> 7.00

Compound	pIC50
O=C(Nc1ccc(C(F)(F)F)cc1)c1cccc2c1OC[C@H](CO)N2c1ncccc1Cl [Example 4-04, (S)-4-(3-chloropyridin-2-yl)-3-hydroxylmethyl-N-(4-trifluoromethylphenyl)-3,4-dihydro-2H-benzo[1,4]oxazine-8-carboxamide]	> 7.00
O=C(Nc1ccc(OC(F)(F)F)cc1)c1cccc2c1OC[C@H](CO)N2c1ccc(Cl)cn1 [Example 4-05, (S)-4-(5-chloropyridin-2-yl)-3-hydroxylmethyl-N-(4-trifluoromethoxyphenyl)-3,4-dihydro-2H-benzo[1,4]oxazine-8-carboxamide]	> 7.00
O=C(Nc1ccc(C(F)(F)F)cc1)c1cccc2c1OC[C@H](CO)N2c1ccc(Cl)cn1 [Example 4-06, (S)-4-(5-chloropyridin-2-yl)-3-hydroxylmethyl-N-(4-trifluoromethylphenyl)-3,4-dihydro-2H-benzo[1,4]oxazine-8-carboxamide]	> 7.00
Cc1ccc(N2c3cccc(C(=O)Nc4ccc(OC(F)(F)F)cc4)c3OC[C@@H]2CO)nc1 [Example 4-07, (S)-4-(5-picoline-2-yl)-3-hydroxylmethyl-N-(4-trifluoromethoxyphenyl)-3,4-dihydro-2H-benzo[1,4]oxazine-8-carboxamide]	> 7.00
Cc1ccc(N2c3cccc(C(=O)Nc4ccc(C(F)(F)F)cc4)c3OC[C@@H]2CO)nc1 [Example 4-08, (S)-4-(5-picoline-2-yl)-3-hydroxylmethyl-N-(4-trifluoromethylphenyl)-3,4-dihydro-2H-benzo[1,4]oxazine-8-carboxamide]	> 7.00
CC(C)Oc1ccc(NC(=O)c2cccc3c2OC[C@H](CO)N3c2ncccc2Cl)cc1F [Example 4-09]	> 7.00
O=C(Nc1ccc(N2CCCCC2)c(F)c1)c1cccc2c1OC[C@H](CO)N2c1ncccc1Cl [Example 4-10]	> 7.00
O=C(Nc1ccc(OC(F)(F)F)c(Cl)c1)c1cccc2c1OC[C@H](CO)N2c1ncccc1Cl [Example 4-11]	> 7.00
CN(C)c1ccc(NC(=O)c2cccc3c2OC[C@H](CO)N3c2ncccc2Cl)cc1F [Example 4-12]	> 7.00
Cc1ccc(NC(=O)c2cccc3c2OC[C@H](CO)N3c2ncccc2Cl)cc1F [Example 4-13]	> 7.00
CC(C)(C)[C@H]1CC[C@H](NC(=O)c2cccc3c2OC[C@H](CO)N3c2ncccc2Cl)CC1 [Example 4-14]	> 7.00
CC(C)(C)COc1ccc(NC(=O)c2cccc3c2OC[C@H](CO)N3c2ncccc2Cl)cc1 [Example 4-15]	> 7.00
O=C(Nc1ccc(Cl)cc1)c1cccc2c1OC[C@H](CO)N2c1ncccc1Cl [Example 4-16]	> 7.00
CC(C)c1ccc(NC(=O)c2cccc3c2OC[C@H](CO)N3c2ncccc2Cl)cc1 [Example 4-17]	> 7.00
O=C(Nc1ccc(F)c(C(F)(F)F)c1)c1cccc2c1OC[C@H](CO)N2c1ncccc1Cl [Example 4-18]	> 7.00
O=C(Nc1ccc(Br)c(Cl)c1)c1cccc2c1OC[C@H](CO)N2c1ncccc1Cl [Example 4-19]	> 7.00
